According to patent US4990613A, “(1R,5S,6S)-2-[(6,7-dih ydro-5H-pyrazolo[1,2-a][1,2,4]triazolium-6-yl)]thio-6-[R-1-hydroxyethyl]- 1-methyl-carbapenem-3-carboxylate and intermediate therefor” (Lederle (Japan), Ltd., priority 1987, dated 1991):
≈ marks a conversion by molar mass, not a printed value. Read-outs that look alike come from different tables or passages of the source.

Experiments:
[1] = tested on: Salmonella typhi 901; assay: Antibacterial test, agar plate dilution method; format: cell-based; settings: Salmonella enterica, TYPHI, 18 h
[2] = tested on: Salmonella paratyphi 1015; assay: Antibacterial test, agar plate dilution method; format: cell-based; settings: Salmonella enterica, PARATYPHI, 18 h
[3] = tested on: Citrobactor freundii GN 346; assay: Antibacterial activity against clinically isolated β-lactamase producing strains; format: cell-based; settings: cephalosporinase producing strain, 18 to 20 hours; read-out: MIC
Description: (§1) A solution of a cephalosporinase producing strain stored by Episome Research Institute, which was prepared by incubating the strain in a sensitivity test broth (STB; product of Nissui K.K.) for 18 hours, was diluted with a fresh STB solution to contain 10^5 cells per milliliter and the diluted solution was then inoculated as spots with a microplanter on a sensitivity disk agar-N (SDA; product of Nissui K.K.) containing a test compound. The disk agar was then incubated for 18 to 20 hours. A minimum inhibitory concentration was determined as a minimum concentration in which the test microorganism had no longer grown after a 18 to 20 hour incubation.

[4] = tested on: Citrobactor freundii GN 7391; assay: as above; format: cell-based; settings: cephalosporinase producing strain, 18 to 20 hours; read-out: MIC
Description: as §1

[5] = tested on: Enterobacter cloacae GN 5797; assay: as above; format: cell-based; settings: Enterobacter cloacae, GN5797; cephalosporinase producing strain, 18 to 20 hours; read-out: MIC
Description: as §1

[6] = tested on: Escherichia coli GN 5482; assay: as above; format: cell-based; settings: Escherichia coli, GN5482; cephalosporinase producing strain, 18 to 20 hours; read-out: MIC
Description: as §1

[7] = tested on: Escherichia coli No. 1501; assay: as above; format: cell-based; settings: Escherichia coli, NO.1501; cephalosporinase producing strain, 18 to 20 hours; read-out: MIC
Description: as §1

[8] = tested on: Escherichia coli No. 96; assay: as above; format: cell-based; settings: Escherichia coli, NO.96; cephalosporinase producing strain, 18 to 20 hours; read-out: MIC
Description: as §1

[9] = tested on: Klebsiella oxytoca GN 10650; assay: as above; format: cell-based; settings: Klebsiella oxytoca, GN10650; cephalosporinase producing strain, 18 to 20 hours; read-out: MIC
Description: as §1

[10] = tested on: Proteus morganii GN 5307; assay: as above; format: cell-based; settings: Morganella morganii, GN5307; cephalosporinase producing strain, 18 to 20 hours; read-out: MIC
Description: as §1

[11] = tested on: Proteus morganii GN 5375; assay: as above; format: cell-based; settings: Morganella morganii, GN5375
Description: as §1

[12] = tested on: Proteus morganii GN 5407; assay: as above; format: cell-based; settings: Morganella morganii, GN5407
Description: as §1

[13] = tested on: Proteus vulgaris GN 4413; assay: as above; format: cell-based; settings: Proteus vulgaris, GN4413
Description: as §1

[14] = tested on: Proteus vulgaris GN 7919; assay: as above; format: cell-based; settings: Proteus vulgaris, GN7919
Description: as §1

[15] = tested on: Providencia rettgeri GN 4430; assay: as above; format: cell-based; settings: Providencia rettgeri, GN4430; cephalosporinase producing strain, 18 to 20 hours; read-out: MIC
Description: as §1

[16] = tested on: Providencia rettgeri GN 4762; assay: as above; format: cell-based; settings: Providencia rettgeri, GN4762; cephalosporinase producing strain, 18 to 20 hours; read-out: MIC
Description: as §1

[17] = tested on: Providencia rettgeri GN 5284; assay: as above; format: cell-based; settings: Providencia rettgeri, GN5284; cephalosporinase producing strain, 18 to 20 hours; read-out: MIC
Description: as §1

[18] = tested on: Pseudomonas aeruginosa GN 10362; assay: as above; format: cell-based; settings: Pseudomonas aeruginosa, GN10362
Description: as §1

[19] = tested on: Pseudomonas aeruginosa GN 10367; assay: as above; format: cell-based; settings: Pseudomonas aeruginosa, GN10367
Description: as §1

[20] = tested on: Pseudomonas cepacia GN 11164; assay: as above; format: cell-based; settings: Burkholderia cepacia, GN11164
Description: as §1

[21] = tested on: Serratia marcescens GN 10857; assay: as above; format: cell-based; settings: Serratia marcescens, GN10857
Description: as §1

[22] = tested on: Serratia marcescens L-65; assay: as above; format: cell-based; settings: Serratia marcescens, L65; cephalosporinase producing strain, 18 to 20 hours; read-out: MIC
Description: as §1

[23] = tested on: Serratia marcescens L-82; assay: as above; format: cell-based; settings: Serratia marcescens, L82; cephalosporinase producing strain, 18 to 20 hours; read-out: MIC
Description: as §1

[24] = tested on: Staphylococcus aureus FDA 209P JC-1; assay: Antibacterial test, agar plate dilution method; settings: Staphylococcus aureus, FDA209P, 18 h
[25] = tested on: Staphylococcus aureus Terajima; assay: Antibacterial test, agar plate dilution method; settings: Staphylococcus aureus, 18 h
[26] = tested on: Staphylococcus aureus MS352; assay: Antibacterial test, agar plate dilution method; settings: Staphylococcus aureus, MS352, 18 h
[27] = tested on: Streptococcus pyogenes Cook; assay: Antibacterial test, agar plate dilution method; settings: Streptococcus pyogenes, 18 h
[28] = tested on: Escherichia coli NIHJ JC-2; assay: Antibacterial test, agar plate dilution method; settings: Escherichia coli, NIHJJC2, 18 h
[29] = tested on: Enterobacter cloacae 963; assay: Antibacterial test, agar plate dilution method; settings: Enterobacter cloacae, 963, 18 h
[30] = tested on: Klebsiella pneumoniae PCI-602; assay: Antibacterial test, agar plate dilution method; settings: Klebsiella pneumoniae, PCI602, 18 h
[31] = tested on: Salmonella enteritidis G14; assay: Antibacterial test, agar plate dilution method; settings: Salmonella enterica, ENTERITIDIS, 18 h
[32] = tested on: Morganella morganii IFO3848; assay: Antibacterial test, agar plate dilution method; settings: Morganella morganii, IFO3848, 18 h
[33] = cephalosporinase producing strain, 18 to 20 hours, read-out: MIC

| SMILES | MIC [1] [µg/mL] | MIC [2] [µg/mL] | MIC [3] [µg/mL] | MIC [4] [µg/mL] | MIC [5] [µg/mL] | MIC [6] [µg/mL] | MIC [7] [µg/mL] | MIC [8] [µg/mL] | MIC [9] [µg/mL] | MIC [10] [µg/mL] | MIC [15] [µg/mL] | MIC [16] [µg/mL] | MIC [17] [µg/mL] | MIC [19] [µg/mL] | MIC [22] [µg/mL] | MIC [23] [µg/mL] | MIC [24] [µg/mL] | MIC [25] [µg/mL] | MIC [26] [µg/mL] | MIC [27] [µg/mL] | also measured |
| --- | --- | --- | --- | --- | --- | --- | --- | --- | --- | --- | --- | --- | --- | --- | --- | --- | --- | --- | --- | --- | --- |
| Cc1nnc(SCC2=C(C(=O)O)N3C(=O)[C@@H](NC(=O)Cn4cnnn4)[C@H]3SC2)s1 [CEZ] | 0.78 (≈ 1.72 µM) | 1.56 (≈ 3.43 µM) | 25 (≈ 55 µM) | > 100 | 0.39 (≈ 0.858 µM) | 0.78 (≈ 1.72 µM) | 0.2 (≈ 0.44 µM) | 0.78 (≈ 1.72 µM) | 0.2 (≈ 0.44 µM) | 0.2 (≈ 0.44 µM) | 0.2 (≈ 0.44 µM) | 0.78 (≈ 1.72 µM) | 0.2 (≈ 0.44 µM) | 3.13 (≈ 6.89 µM) | 0.2 (≈ 0.44 µM) | 0.39 (≈ 0.858 µM) | 0.2 (≈ 0.44 µM) | 0.05 (≈ 0.11 µM) | 0.1 (≈ 0.22 µM) | 0.1 (≈ 0.22 µM) | MIC [11, 33]: 0.2 µg/mL (≈ 0.44 µM); MIC [12, 33]: 0.39 µg/mL (≈ 0.858 µM); MIC [13, 33]: 0.2 µg/mL (≈ 0.44 µM); MIC [14]: 3.13 µg/mL (≈ 6.89 µM); MIC [18]: 3.13 µg/mL (≈ 6.89 µM); MIC [20, 33]: 0.78 µg/mL (≈ 1.72 µM); MIC [21, 33]: 0.78 µg/mL (≈ 1.72 µM); MIC [28]: 0.78 µg/mL (≈ 1.72 µM); MIC [29]: > 100 µg/mL; MIC [30]: 0.78 µg/mL (≈ 1.72 µM); MIC [31]: 0.78 µg/mL (≈ 1.72 µM); MIC [32]: 25 µg/mL (≈ 55 µM) |
| C[C@@H](O)[C@H]1C(=O)N2C(C(=O)O)=C(SCCN=CN)C[C@H]12 [Imipenem] | 0.1 (≈ 0.334 µM) | 1.56 (≈ 5.21 µM) | 0.39 (≈ 1.3 µM) | 0.78 (≈ 2.61 µM) | 0.39 (≈ 1.3 µM) | 0.1 (≈ 0.334 µM) | 0.1 (≈ 0.334 µM) | 0.1 (≈ 0.334 µM) | 0.2 (≈ 0.668 µM) | 0.78 (≈ 2.61 µM) | 0.39 (≈ 1.3 µM) | 0.39 (≈ 1.3 µM) | 0.39 (≈ 1.3 µM) | 1.56 (≈ 5.21 µM) | 0.39 (≈ 1.3 µM) | 0.2 (≈ 0.668 µM) | 0.025 (≈ 0.0835 µM) | < 0.006 | 0.013 (≈ 0.0434 µM) | < 0.006 | MIC [11]: 3.13 µg/mL (≈ 10.5 µM); MIC [12]: 3.13 µg/mL (≈ 10.5 µM); MIC [13]: 6.25 µg/mL (≈ 20.9 µM); MIC [14, 33]: 0.39 µg/mL (≈ 1.3 µM); MIC [18, 33]: 0.78 µg/mL (≈ 2.61 µM); MIC [20]: 3.13 µg/mL (≈ 10.5 µM); MIC [21]: 3.13 µg/mL (≈ 10.5 µM); MIC [28]: 0.1 µg/mL (≈ 0.334 µM); MIC [29]: 0.2 µg/mL (≈ 0.668 µM); MIC [30]: 0.39 µg/mL (≈ 1.3 µM); MIC [31]: 0.78 µg/mL (≈ 2.61 µM); MIC [32]: 0.39 µg/mL (≈ 1.3 µM) |
